In series [1] the test system is Artemia franciscana nauplii. Kind of series: Artemia franciscana nauplii lethality assay. Conditions: potassium dichromate 1000 μg/mL.
Method: Artemia franciscana nauplii toxicity screening: Toxicity was assessed using a modified Artemia franciscana nauplii lethality assay. Briefly, 400 μL of seawater containing ˜53 (mean 52.7, n=125, SD 11.8) A. franciscana nauplii were added to wells of a 48 well plate and immediately used in the bioassay. A volume of 400 μL of the reference toxin or the diluted plant extracts were transferred to the wells and incubated at 25±1° C. under artificial light (1000 Lux). For each plate, a 400 μL seawater negative control was run in triplicate. The wells were assessed at regular intervals and the number of dead counted. The nauplii were deemed dead if no movement of the appendages was observed within 10 seconds. After 24 h, all nauplii were sacrificed and counted to determine the total % mortality per well.
To further quantify the effects of toxin concentration on the initiation of mortality, the extracts were serially diluted in artificial seawater to test across a range of concentrations in the Artemia nauplii bioassay.
The subject of series [2] is Shewanella frigidimarina strain NCIMB 400. Kind of series: disc diffusion growth inhibition screening. The series is classed as cell-based. Conditions: S. frigidimarina. The text has this: Antibacterial screening: Environmental Shewanella strains: Shewanella putrefaciens strain 200, Shewanella baltica strain OS155, Shewanella frigidimarina strain NCIMB 400 and Shewanella loihica strain PV-4 were used. Antibacterial screening was achieved using a modified peptone/yeast extract (PYE) agar containing: 1 g/L peptone, 1.5 g/L yeast extract, 7.5 g/L NaCl, 1 g/L ammonium persulfate, 2.4 g/L HEPES buffer (pH 7.5) and 16 g/L bacteriological agar.
The S. putrefaciens and S. loihica cultures were incubated at 30° C. for 24 h. The S. baltica and S. frigidimarina cultures were incubated at 15° C. for 72 h. All stock cultures were subcultured and maintained in PYE media at 4° C.
Evaluation of antibacterial activity: Antibacterial activity screening of the T. ferdinandiana fruit and leaf extracts was assessed using a modified disc diffusion assay. Briefly, 100 μL of each individual Shewanella spp. was grown separately in 20 mL of fresh nutrient broth until an approximate count of 10^8 cells/mL was achieved. A volume of 100 μL of each bacterial suspension was spread onto nutrient agar plates and the extracts were tested for antibacterial activity using 5 mm sterilised filter paper discs. […]
Plates inoculated with S. putrefaciens or S. loihica cultures were incubated at 30° C. for 24 h. […] The diameters of the inhibition zones were measured to the closest whole millimetre. […]
(In general: A growth-free zone around the sample is the usual read-out of agar diffusion tests.)

In series [3] the test system is Shewanella loihica strain PV-4. Kind of series: disc diffusion growth inhibition screening. The series is classed as cell-based. To be noted: PV4, S. loihica, 10 μL extract per disc, ampicillin 10 μg, 30° C. 24 h. From the text:
(§1) Antibacterial screening: Environmental Shewanella strains: Shewanella putrefaciens strain 200, Shewanella baltica strain OS155, Shewanella frigidimarina strain NCIMB 400 and Shewanella loihica strain PV-4 were used. Antibacterial screening was achieved using a modified peptone/yeast extract (PYE) agar containing: 1 g/L peptone, 1.5 g/L yeast extract, 7.5 g/L NaCl, 1 g/L ammonium persulfate, 2.4 g/L HEPES buffer (pH 7.5) and 16 g/L bacteriological agar. The S. putrefaciens and S. loihica cultures were incubated at 30° C. for 24 h. The S. baltica and S. frigidimarina cultures were incubated at 15° C. for 72 h. All stock cultures were subcultured and maintained in PYE media at 4° C. Evaluation of antibacterial activity: Antibacterial activity screening of the […] fruit and leaf extracts was assessed using a modified disc diffusion assay. […] Discs were infused with 10 μL of the […] fruit and leaf extracts, allowed to dry and placed onto the inoculated plates. The plates were left to stand at 4° C. for 2 h before incubation. Plates inoculated with S. putrefaciens or S. loihica cultures were incubated at 30° C. for 24 h. S. baltica or S. frigidimarina cultures were incubated at 15° C. for 72 h. The diameters of the inhibition zones were measured to the closest whole millimetre. Each assay was completed in at least triplicate. Mean values (±SEM) are reported in this study. Ampicillin discs (10 μg) were obtained and used as positive controls to compare antibacterial activity. Filter discs infused with 10 μL of distilled water were used as a negative control.

Series [4] has as its system Shewanella putrefaciens strain 200. Kind of series: disc diffusion growth inhibition screening. Conditions: S. putrefaciens, 10 μL extract per disc, ampicillin 10 μg, 30° C. 24 h. The series is classed as cell-based.
From the text: as §1

Series [5] has as its system Shewanella baltica strain OS155. Kind of series: disc diffusion growth inhibition screening. Type of series: cell-based. To be noted: S. baltica.
From the text: as §1

Structures are written as SMILES.

Data on two compounds can be found in US20200221740A1, “TERMINALIA FERDINANDIANA LEAF EXTRACT AND PRODUCTS CONTAINING EXTRACT OF TERMINALIA FERDINANDIANA LEAF” (RISING PHOENIX INDUSTRIES PTY LTD, priority 2017, published 2020).

By mortality is commonly meant the share of the test organisms that died. Higher therefore signals fewer survivors. The term zone of inhibition denotes the extent of the growth-free halo in a diffusion test. Read a low zone of inhibition as a weaker effect on the plate.

Consider `[K+].[K+].[O]=[Cr](=[O])([O-])[O][Cr](=[O])(=[O])[O-]` [potassium dichromate], for which the “onset of nauplii death” value in series [1] was no more than 3 h. The mortality in series [1] (within 5 hours) is 100%.

For `CC1(C)S[C@@H]2[C@H](NC(=O)[C@H](N)c3ccccc3)C(=O)N2[C@H]1C(=O)O` [ampicillin], the “growth inhibitory activity (in words)” value in series [2] is listed as “resistant”; in series [5], “unaffected”. For the same compound, the zone of inhibition at 10 µg/disc was 19.6 ± 1.3 mm in series [3] and 8.3 ± 0.6 mm in series [4].
